Key:
[1] = target: T1, BbLDH (BB_0087, lactate dehydrogenase) (Borreliella burgdorferi, UniProt O51114); assay: X-ray crystal structure, […] Å; assay type: binding
T1 construct: gene ldh; full-length, 316 residues

[2] = target: T1, BbLDH (BB_0087, lactate dehydrogenase); assay: X-ray crystal structure, […] Å; allosteric activation of enzyme activity; assay type: binding

T1 sequence (O51114 whole entry): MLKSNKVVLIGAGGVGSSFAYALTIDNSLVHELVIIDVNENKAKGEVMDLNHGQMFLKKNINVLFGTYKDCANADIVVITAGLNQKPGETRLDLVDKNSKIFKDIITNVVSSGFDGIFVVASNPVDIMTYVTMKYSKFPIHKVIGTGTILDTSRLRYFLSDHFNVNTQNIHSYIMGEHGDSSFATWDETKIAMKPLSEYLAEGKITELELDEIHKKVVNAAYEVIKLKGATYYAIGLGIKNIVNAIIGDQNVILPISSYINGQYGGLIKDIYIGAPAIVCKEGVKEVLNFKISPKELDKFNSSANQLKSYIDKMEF

| Compound | X-ray crystal structure, 2.1 Å [1] | X-ray crystal structure, 2.1 Å; allosteric activation of enzyme activity [2] |
| --- | --- | --- |
| NC(=O)C1=CN([C@@H]2O[C@H](COP(=O)(O)OP(=O)(O)OC[C@H]3O[C@@H](n4cnc5c(N)ncnc54)[C@H](O)[C@@H]3O)[C@@H](O)[C@H]2O)C=CC1 [NADH] | Both structures were determined in the presence of NADH and the pyruvate analog oxamate (OXA) |  |
| O=P(O)(O)OC[C@H]1OC(O)(COP(=O)(O)O)[C@@H](O)[C@@H]1O (some centres unmarked) [FBP, fructose 1,6-bisphosphate] |  | Salt bridge and hydrogen bonding residues that interact with FBP in BbLDH (chain A and C, pink and yellow) |

Source: publication doi:10.1101/2025.02.07.637162, “Lactate dehydrogenase is the Achilles’ heel of Lyme disease bacterium Borreliella burgdorferi” (bioRxiv, 2025)
